Data published in patent US9155724B2, “Combination methods for treatment of disease” (Whitehead Institute for Biomedical Research, priority 2010, dated 2015).
Counter-ions that a name gives are not always drawn. Each block holds one compound with its values, some of them ahead of it.

Key:
HL60 cells = settings: read-out: IC50 on HL60 cells (growth inhibition); cited from earlier work
c-Myc = c-Myc (Homo sapiens, UniProt P01106); settings: relative to parent compound 10058-F4; cited from earlier work
Sequence of c-Myc (P01106 whole entry): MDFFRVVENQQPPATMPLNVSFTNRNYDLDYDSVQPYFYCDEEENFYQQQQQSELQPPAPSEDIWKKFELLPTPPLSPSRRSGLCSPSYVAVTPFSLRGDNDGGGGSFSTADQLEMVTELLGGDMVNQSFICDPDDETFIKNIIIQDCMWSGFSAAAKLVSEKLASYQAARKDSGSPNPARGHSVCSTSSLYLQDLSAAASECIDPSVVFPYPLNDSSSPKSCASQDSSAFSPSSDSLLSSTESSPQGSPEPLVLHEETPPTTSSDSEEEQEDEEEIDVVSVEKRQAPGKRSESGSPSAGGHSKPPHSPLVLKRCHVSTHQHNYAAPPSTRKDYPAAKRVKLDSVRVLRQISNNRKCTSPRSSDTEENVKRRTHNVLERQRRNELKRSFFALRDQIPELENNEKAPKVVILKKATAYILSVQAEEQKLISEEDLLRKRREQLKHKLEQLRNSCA

c-Myc/Max [1] = target: T1, c-Myc/Max (Mus musculus, UniProt P01108); experiment: expression analysis (quantitative PCR) in 10058-F4-treated mES cells; format: cell-based, murine; settings: 50 μM for 6 hours
T1 construct: endogenous in cells; host or cells: V6.5 (C57BL/6-129) murine ES cells
T1 sequence (P01108 whole entry): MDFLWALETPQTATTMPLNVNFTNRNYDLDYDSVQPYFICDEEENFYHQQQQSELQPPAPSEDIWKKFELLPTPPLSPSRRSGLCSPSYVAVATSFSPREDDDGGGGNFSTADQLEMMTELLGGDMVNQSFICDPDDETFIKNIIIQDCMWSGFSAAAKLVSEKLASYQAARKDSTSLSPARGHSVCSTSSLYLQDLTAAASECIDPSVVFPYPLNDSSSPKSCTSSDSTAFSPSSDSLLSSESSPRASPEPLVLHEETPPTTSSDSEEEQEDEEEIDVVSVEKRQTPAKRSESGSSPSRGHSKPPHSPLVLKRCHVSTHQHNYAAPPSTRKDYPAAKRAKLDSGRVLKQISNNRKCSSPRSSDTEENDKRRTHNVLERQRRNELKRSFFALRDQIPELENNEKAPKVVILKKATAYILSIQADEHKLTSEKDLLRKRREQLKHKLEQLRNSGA
Protocol: FIGS. 6A to 6E. c-Myc inhibition effects transcription at the pause release step. (A) RNA was extracted from mES cells treated with 10058-F4 or vehicle alone (DMSO) for 6 hours and used to generate cDNA using reverse transcription. Expression change was calculated for 10058-F4 treated cells compared vehicle alone control for two non-c-Myc target genes (Brg1, Rnf2-green) and five c-Myc target genes (Bax, Nol5, Zfp451, Brca2 and Atic—blue) from two independent experiments. Error bars represent s.d. from triplicate qPCR reactions. (B) mES cells were treated with 10058-F4 for either 1.5, 6 or 12 hours. Extracts were analyzed using Western blot using antibodies against Pol II Ser2P CTD, Pol II Ser5P CTD and Cdk9 to determine the levels of the modified forms of Pol II. TBP was used as a loading control. […]
To more directly test whether c-Myc regulates pause release and the associated Pol II CTD phosphorylation at Ser2, we used a low molecular weight inhibitor of c-Myc/Max, 10058-F4, which inhibits c-Myc/Max heterodimerization both in vitro and in vivo (Hammoudeh et al., 2009; Wang et al., 2007; Yin et al., 2003). Max co-occupies c-Myc binding sites as determined by ChIP, confirming that c-Myc and Max function together at target genes in ES cells (FIG. 14A). […]

c-Myc/Max [2] = target: T1, c-Myc/Max; experiment: Western blot of 10058-F4-treated mES cells; format: cell-based, murine
Protocol: FIGS. 6A to 6E. c-Myc inhibition effects transcription at the pause release step. (A) RNA was extracted from mES cells treated with 10058-F4 or vehicle alone (DMSO) for 6 hours and used to generate cDNA using reverse transcription. Expression change was calculated for 10058-F4 treated cells compared vehicle alone control for two non-c-Myc target genes (Brg1, Rnf2-green) and five c-Myc target genes (Bax, Nol5, Zfp451, Brca2 and Atic—blue) from two independent experiments. Error bars represent s.d. from triplicate qPCR reactions. (B) mES cells were treated with 10058-F4 for either 1.5, 6 or 12 hours. Extracts were analyzed using Western blot using antibodies against Pol II Ser2P CTD, Pol II Ser5P CTD and Cdk9 to determine the levels of the modified forms of Pol II. TBP was used as a loading control. (C) Pol II ChIP-seq binding profiles in mES cells treated with 10058-F4 (c-Myc/Max inhibitor; blue), vehicle alone (black), or flavopiridol (P-TEFb inhibitor; red). Pol II occupancy is shown for three c-Myc target genes (Ncl, Npm1 and Nol5) and two non-cMyc target gene (Txnip and Chpf2). Cells were treated with 10058-F4 or DMSO for 6 hours. See also FIG. 14. (D) Average Pol II binding plots for the high confidence cMyc targets and non-c-Myc target genes in no drug (black), and 10058-F4 treatment (blue). […] The right panel is a close up of the transcribed region to show the difference in amounts of elongating Pol II density under the different conditions. […]
FIGS. 14A to 14F. […] Max ChIP DNA was analyzed using qPCR at the selected binding sites and enrichment was calculated for replicate PCR reactions over input DNA at each region. […] Protein extracts were analyzed using Western blots and probed with antibodies against CycT1 and Cdk9. […] ES cells were infected for 24 hours, then selected for 72 hours prior to harvesting. c-Myc levels were determined using RT-PCR analysis and normalized against a Gapdh control. […] ES cells were infected for 24 hours, then selected for 72 hours prior to harvesting. c-Myc levels were determined using Western blot analysis using an antibody against c-Myc. […]

c-Myc/Max [3] = target: T1, c-Myc/Max; experiment: Pol II ChIP-seq / traveling ratio in 10058-F4-treated mES cells; format: cell-based, murine; settings: 50 μM for 6 hours
Protocol: FIGS. 6A to 6E. c-Myc inhibition effects transcription at the pause release step. (A) RNA was extracted from mES cells treated with 10058-F4 or vehicle alone (DMSO) for 6 hours and used to generate cDNA using reverse transcription. Expression change was calculated for 10058-F4 treated cells compared vehicle alone control for two non-c-Myc target genes (Brg1, Rnf2-green) and five c-Myc target genes (Bax, Nol5, Zfp451, Brca2 and Atic—blue) from two independent experiments. Error bars represent s.d. from triplicate qPCR reactions. (B) mES cells were treated with 10058-F4 for either 1.5, 6 or 12 hours. Extracts were analyzed using Western blot using antibodies against Pol II Ser2P CTD, Pol II Ser5P CTD and Cdk9 to determine the levels of the modified forms of Pol II. TBP was used as a loading control. (C) Pol II ChIP-seq binding profiles in mES cells treated with 10058-F4 (c-Myc/Max inhibitor; blue), vehicle alone (black), or flavopiridol (P-TEFb inhibitor; red). Pol II occupancy is shown for three c-Myc target genes (Ncl, Npm1 and Nol5) and two non-cMyc target gene (Txnip and Chpf2). Cells were treated with 10058-F4 or DMSO for 6 hours. See also FIG. 14. (D) Average Pol II binding plots for the high confidence cMyc targets and non-c-Myc target genes in no drug (black), and 10058-F4 treatment (blue). […] The right panel is a close up of the transcribed region to show the difference in amounts of elongating Pol II density under the different conditions. Also included in the right panel for comparison is elongating Pol II density following flavopiridol treatment (red). (E) Pol II traveling ratio (TR) as described in FIG. 1C for the high confidence c-Myc target genes and non-c-Myc target genes following 10058-F4 treatment (blue) or no drug (black). The left panel is the TR for the c-Myc targets and right panel is the TR for non-c-Myc targets. Higher TR values indicate a higher degree of pausing in this gene set.
If c-Myc regulates pause release, then inhibition by 10058-F4 should have an effect on Pol II levels in promoter and gene bodies similar to that of flavopiridol, but only at c-Myc occupied genes. […]
We carried out a more global analysis of the effect of 10058-F4 on Pol II occupancy of genes bound by c-Myc and compared these patterns to genes that are not bound by this factor but show evidence of elongation (FIG. 6D). […] A similar shift in TR at the c-Myc target genes was also detected following c-Myc shRNA knockdown, indicating genes become more paused (FIG. 14F). […]
RNAPolII—10058F4Treated_Tracks.WIG.gz—contains two ChIP-seq datasets mapped to mouse genome mm8 using a +200 bp extension model that can be uploaded to the UCSC genome browser to view binding events. The ChIP experiments were done using the N20 Pol II antibody (sc-899) to determined total Pol II occupancy. […]

[4] = system: c-Myc-dependent oncogenic transformation of chicken embryo fibroblasts; settings: at 20 μM; cited from earlier work
[5] = cited from earlier work
P-TEFb [6] = target: T2, P-TEFb (Mus musculus, UniProt Q99J95); experiment: Western blot of P-TEFb target phosphorylation in flavopiridol-treated mES cells; format: cell-based, murine; settings: 1 μM flavopiridol, within 60 min
T2 construct: endogenous in cells; host or cells: V6.5 (C57BL/6-129) murine ES cells
T2 sequence (Q99J95 whole entry): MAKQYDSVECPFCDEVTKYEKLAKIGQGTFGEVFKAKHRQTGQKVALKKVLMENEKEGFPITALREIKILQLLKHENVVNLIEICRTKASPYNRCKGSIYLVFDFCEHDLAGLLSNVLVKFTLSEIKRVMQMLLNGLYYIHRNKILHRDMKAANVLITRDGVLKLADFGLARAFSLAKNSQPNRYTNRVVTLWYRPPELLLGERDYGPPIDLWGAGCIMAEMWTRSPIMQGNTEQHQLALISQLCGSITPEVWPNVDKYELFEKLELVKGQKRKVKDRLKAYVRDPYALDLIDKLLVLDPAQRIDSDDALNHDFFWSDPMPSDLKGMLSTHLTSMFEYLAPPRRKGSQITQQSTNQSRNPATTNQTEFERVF
T2 sequence (Q9QWV9 whole entry partner): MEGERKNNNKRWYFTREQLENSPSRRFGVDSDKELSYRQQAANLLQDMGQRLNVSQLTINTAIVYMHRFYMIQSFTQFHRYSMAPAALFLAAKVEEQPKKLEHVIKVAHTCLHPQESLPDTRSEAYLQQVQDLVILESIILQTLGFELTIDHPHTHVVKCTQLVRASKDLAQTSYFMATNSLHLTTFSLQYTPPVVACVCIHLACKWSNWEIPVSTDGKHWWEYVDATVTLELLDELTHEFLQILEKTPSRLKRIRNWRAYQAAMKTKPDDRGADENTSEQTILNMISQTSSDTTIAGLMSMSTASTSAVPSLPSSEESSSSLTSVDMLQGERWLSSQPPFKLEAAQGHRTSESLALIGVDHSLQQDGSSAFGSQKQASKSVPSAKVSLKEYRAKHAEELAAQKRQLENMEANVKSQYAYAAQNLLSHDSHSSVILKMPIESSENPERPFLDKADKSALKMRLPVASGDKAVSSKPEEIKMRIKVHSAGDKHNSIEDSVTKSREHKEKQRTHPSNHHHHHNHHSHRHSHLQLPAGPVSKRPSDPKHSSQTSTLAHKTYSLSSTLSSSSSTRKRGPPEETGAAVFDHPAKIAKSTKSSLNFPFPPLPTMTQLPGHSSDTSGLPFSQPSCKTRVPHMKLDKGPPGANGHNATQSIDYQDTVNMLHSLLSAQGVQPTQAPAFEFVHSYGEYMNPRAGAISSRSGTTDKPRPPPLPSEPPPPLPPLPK
Protocol: (A) mES cells were treated with 1 μM flavopiridol for the indicated time.
(A) mES cells were treated with the indicated flavopiridol concentration or DMSO alone (−), for 60 minutes.
To assess the role of P-TEFb-dependent pause release in global transcriptional control, we repeated the ChIP-Seq experiment for total Pol II in mES cells treated with flavopiridol, an inhibitor of Cdk9 kinase activity (Chao et al., 2000; Chao and Price, 2001; Ni et al., 2004).
V6.5 (C57BL/6-129) murine ES cells were grown under typical mES conditions on irradiated mouse embryonic fibroblasts (MEFs). […] For location analysis on mES cells following treatment with small molecule inhibitors, cells were grown two passages off feeders and prior to formaldehyde crosslinking, the cells were treated by addition of the indicated final concentration of flavopiridol (1 μM for 1 hour for ChIP-chip and ChIP-seq experiments, or the indicated concentration and time for Western blot analysis), or c-Myc/Max inhibitor 10058-F4 (50 μM for 6 hours), both dissolved in DMSO, to the growth medium. As a control, vehicle alone (DMSO) was added to the growth medium at the same final volume as with drug. Small molecule inhibitors used were: Flavopiridol (Sigma cat #F3055), and c-Myc inhibitor 10058-F4 (Sigma cat #F3680).
Western blots were done following standard protocols. Antibodies used for Western blots were as follows: Spt5: gift of Yuki Yamaguchi and Hiroshi Handa (Wada et al., 1998); NelfA: gift of Yuki Yamaguchi and Hiroshi Handa; Cdk9: Santa Cruz sc-484 and sc-8338, Ser2P Pol II: Abcam (H5 clone) ab24758; Ser5P Pol II: Abcam ab5131; Brg1: Santa Cruz sc-10768; Max: Santa Cruz sc-197; c-Myc: Santa Cruz-764; Cyclin T1: gift of David Price; Oct4: Santa Cruz sc-5279; and TBP: Abcam ab818.

P-TEFb [7] = target: T2, P-TEFb; experiment: Pol II ChIP-seq / traveling ratio in flavopiridol-treated mES cells; format: cell-based, murine
Protocol: (A) mES cells were treated with 1 μM flavopiridol for the indicated time. […] (B) RNA Pol II (all) ChIP-seq analysis in mES cells treated with control (DMSO for 60 minutes, black) or flavopiridol (1 μM for 60 minutes, red). […] Higher TR values indicate a higher degree of pausing.
To assess the role of P-TEFb-dependent pause release in global transcriptional control, we repeated the ChIP-Seq experiment for total Pol II in mES cells treated with flavopiridol, an inhibitor of Cdk9 kinase activity (Chao et al., 2000; Chao and Price, 2001; Ni et al., 2004). […] If Pol II pause release is required at transcribed genes, we would expect that in the presence of flavopiridol, Pol II molecules would remain associated with promoter proximal pause sites but be depleted from DNA further downstream. […] We analyzed traveling ratios to further evaluate changes in Pol II occupancy genome-wide.
V6.5 (C57BL/6-129) murine ES cells were grown under typical mES conditions on irradiated mouse embryonic fibroblasts (MEFs). For location analysis, cells were grown for two passages off of MEFs, on gelatinized tissue-culture plates. […]
To quantify this effect, we have developed a measure called Traveling Ratio (TR) that compares the ratio between Pol II density in the promoter and in the gene region. […]

P-TEFb [8] = target: T2, P-TEFb; experiment: Spt5 and NelfA ChIP-chip in flavopiridol-treated mES cells; format: cell-based, murine; settings: flavopiridol for 60 minutes
Protocol: (A) Pairwise correlation analysis of Spt5, NelfA and Pol II (all) ChIP-seq occupancy in mES cells. […] (B) Western blot analysis of mES cells treated with 1 mM flavopiridol or control for 60 minutes prior. […] (C) Average gene binding for NelfA and Spt5 following 1 mM flavopiridol (red) or control (black) for 60 minutes in mES cells. The average ChIP-chip enrichment was determined in each bin (250 bp) in each condition and plotted from −4 kb to +2 kb.
We used ChIP-chip to determine if Spt5 and NelfA co-occupy promoter proximal sites with Pol II when P-TEFb activity is inhibited by flavopiridol.
Purified immunoprecipitated DNA was amplified using two rounds of ligation mediated PCR (LM PCR), as described in (Lee et al., 2006b) and the Agilent Mammalian ChIP-on-chip protocol (version 9.1, November 2006). LM-PCR immunoprecipitated DNA was labeled with Cy5, LM-PCR input DNA was labeled with Cy3 using Invitrogen Bioprime random primer labeling kit. For microarray hybridization, the Agilent Mammalian ChIP-on-chip protocol (version 9.1, November 2006) was followed. In brief, mouse Cotl DNA, Agilent blocking buffer (1× final conc.), Agilent hybridization buffer (1× final conc.), was added to Cy5- and Cy3-labeled DNA. The mixture was incubated at 95° C. for 3 minutes, followed by 37° C. for 30 minutes. Sample was centrifuged for 1 min and sample was hybridized to Agilent DNA microarray. […]

[9] = cited from earlier work; remark: listed apart in the source
[10] = ES cells treated with 10058-F4 for 1.5, 6 or 12 hours

Structure (SMILES): CC(C)c1ccc(/C=C2\SC(=S)N(CN3CCCCC3)C2=O)cc1 [28RH-NCN-1]
IC50 (HL60 cells): 29 µM
inhibition of DNA binding of c-Myc (c-Myc): comparable to that of the parent compound

decrease in the expression of c-Myc target genes (c-Myc/Max [1]): 20-40%
expression of two non-c-Myc target genes (c-Myc/Max [1]): did not affect
levels of Pol II Ser2P (c-Myc/Max [2]; [10]): significant reduction
levels of Pol II Ser5P (c-Myc/Max [2]; [10]): remained unaffected
protein levels of P-TEFb components Cdk9 or CycT1 (c-Myc/Max [2]; mES cells, 10058-F4 for 6 hours): did not alter
TR at c-Myc target genes (c-Myc/Max [3]): substantial increase
TR at non-c-Myc targets (c-Myc/Max [3]): no such shift
Pol II density in transcribed regions (c-Myc/Max [3]; c-Myc targets, gene body p=7.341e-06): clear reduction
Pol II density at promoters (c-Myc/Max [3]; c-Myc targets, p=0.4536): little effect
Structure (SMILES): CCc1ccc(/C=C2\SC(=S)NC2=O)cc1 [10058-F4]
IC50 (HL60 cells): 49 µM

Structure (SMILES): COc1ccc(CN(C(=O)c2ccccn2)C(C(=O)NC2CCCCC2)c2ccc3cc(OCC(=O)OC(C)(C)C)ccc3c2)cc1 (centres unmarked) [NY2267]
inhibition of c-Myc-dependent oncogenic transformation [4]: strongly inhibited

Ser5 phosphorylation of Pol II (P-TEFb [6]): remained unaffected
phosphorylation of Pol II Ser2 (P-TEFb [6]): reduced phosphorylation
phosphorylation of Spt5 (P-TEFb [6]): reduced phosphorylation
genes with a change in Pol II TR of at least 1.5 upon drug treatment (P-TEFb [7]; 1 μM for 60 minutes): 75%
pause release at genes that are not targets of c-Myc (P-TEFb [7]; flavopiridol treatment, Pol II ChIP-seq): block in pause release
Spt5 occupancy downstream of promoter proximal sites (P-TEFb [8]): depleted
Structure (SMILES): CN1CC[C@H](c2c(O)cc(O)c3c(=O)cc(-c4ccccc4Cl)oc23)[C@H](O)C1 [flavopiridol, (−)-2-(2-Chlorophenyl)-5,7-dihydroxy-8-[(3S,4R)-3-hydroxy-1-methyl-4-piperidinyl]-4H-1-benzopyran-4-one hydrochloride]
main side effects ([5]; doses achieving plasma levels of approximately 400 nM, 72 hour treatment): fatigue, venous thromboses, and diarrhea
plasma flavopiridol levels ([5]; during a 72 hour treatment period): approximately 400 nM

Structure (SMILES): CC[C@H](CO)Nc1nc(NCc2ccccc2)c2ncn(C(C)C)c2n1 [roscovitine, 2-(R)-(1-Ethyl-2-hydroxyethylamino)-6-benzylamino-9-isopropyl purine]
dose-limiting toxicities ([9]; at 800 mg b.i.d.): grade 3 fatigue, grade 3 skin rash, grade 3 hyponatraemia and grade 4 hypokalaemia
dose at which dose-limiting toxicities were seen ([9]; patients with solid tumors, 7-day b.i.d. p.o. schedule): 800 mg b.i.d.
